According to publication PMC4633953, “FR171456 is a specific inhibitor of mammalian NSDHL and yeast Erg26p” (Nature Communications, 2015):
Where “and” joins values, the source holds several entries; their conditions need not be identical. Equal entries are not always repeated.

What was measured:
[1] = target: delta-opioid receptor (Homo sapiens, UniProt P41143); assay: Radioligand competition assay; assay type: binding
[2] = system: erg26Δ haploid yeast expressing mutant ERG26 alleles; assay: Growth dose response of erg26Δ haploid yeast expressing mutant ERG26 alleles; assay type: cell-based, S. cerevisiae; conditions: seven mutant ERG26 alleles, rich liquid media
Source text: To confirm that the observed ERG26 mutations are dominant and sufficient to confer FR171456 resistance, but retain the essential function of Erg26p, we assessed the growth of erg26Δ haploid yeast expressing wild-type ERG26 or one of seven mutant alleles inserted at another locus in rich liquid media. […] It was not possible to generate a haploid strain carrying a single copy of ERG26 encoding the Gly90Ser mutation after multiple attempts. Thus seven of the eight mutations within the coding region of ERG26 are both dominant for FR171456 resistance and retain sufficient enzymatic function to support life. This additional genetic data set confirms that Erg26p is the target of FR171456.
For EMS mutagenesis experiments, 1 × 10^8 cells were plated on one standard YPD agar plate containing 50 μM FR171456 in 2% DMSO v/v following a standard EMS mutagenesis protocol. After 2 days incubation at 30 °C 48 representative colonies were picked and retested in an overnight liquid assay for growth in YPD with or without 50 μM FR171456 in 2% DMSO v/v. Genomic DNA was prepared from 42 resistant clones (+ one wild type) and for each the entire ERG26 gene was sequenced following PCR amplification with high-fidelity polymerase. […]

[3] = system: Candida krusei NF2902; assay: Antifungal MIC; assay type: cell-based; conditions: Pichia kudriavzevii
[4] = system: ERG26 heterozygous strain (erg26Δ/ERG26); assay: Haploinsufficiency profiling (HIP); assay type: cell-based, S. cerevisiae; conditions: FR171456 at IC30 (4 μM)
Description: The HIP assay was performed in 24-well plates (Greiner 662102), with 1.6 ml per well YPD. Experimental compounds were tested at n=2 within the same plate at or close to their IC30 concentration. Each plate contained two no drug controls, one positive control (Benomyl), 10 experimental compounds in duplicates and one contamination control that received no cells. A standard experiment was 4 plates per 40 experimental compounds processed robotically without human intervention. YPD per compound filled wells were inoculated with ∼250 yeast cells per strain (100 μl of a 1.5-OD600 per ml culture) from an overnight log phase preculture to start the experiment (Supplementary Fig. 2). The plates were pipetted with a standard 96 pipettor head by providing tip boxes preconfigured with a special tip pattern. Plates were incubated for 16 h in a robotic shaking incubator at 30 °C/550 r.p.m. allowing for ∼5 doublings. ∼250 yeast cells per strain (120 μl of a 1.2-OD600 per ml culture) were subsequently transferred into a preconfigured 24-well plate that was stored in a robotic plate reservoir at 4 °C until 30 min prior to its use where it was prewarmed to 30 °C. Once inoculated the new plate was incubated at 30 °C/550 r.p.m. to allow the next five yeast generations (generation 6–10) and the plate containing the first five doubling cultures was stored at 4 °C. […]

[5] = system: replicon-carrying Huh-7 cells; assay: Proliferation/viability of replicon-carrying Huh-7 cells (resazurin); assay type: cell-based, human; conditions: replicon assay conditions
Description: The inhibitor screening was performed in 1,536-well plate with 3,000 cells per well, using Huh-7 cells containing the HCV replicon subgenomic genotype 1b, maintained in DMEM, supplemented with (1 × ) L-glutamine (L-Glue), 1 × non-essential amino acids, 10% heat-inactivated fetal bovine serum (FBS), and 1 mg ml^–1 G418, and incubated with compounds for 48 h at 37 °C, 5% CO2. […] Following compound incubation, Resazurin solution (10 × : 1 μg μl^–1 Resazurin in DMSO) diluted to 1 × was then added to a volume of 0.5 μl to each well and incubated for further 3 h at 37 °C, 5% CO2 to monitor cell viability. Subsequently 15 μl, diluted 1:2 from stock of Steady- Glo (Promega) was added and the luminescence from the HCV replicon was monitored using the Envision (Envision US Lum, using 0.1 s per well measurement time).

Chain of delta-opioid receptor (P41143 whole entry): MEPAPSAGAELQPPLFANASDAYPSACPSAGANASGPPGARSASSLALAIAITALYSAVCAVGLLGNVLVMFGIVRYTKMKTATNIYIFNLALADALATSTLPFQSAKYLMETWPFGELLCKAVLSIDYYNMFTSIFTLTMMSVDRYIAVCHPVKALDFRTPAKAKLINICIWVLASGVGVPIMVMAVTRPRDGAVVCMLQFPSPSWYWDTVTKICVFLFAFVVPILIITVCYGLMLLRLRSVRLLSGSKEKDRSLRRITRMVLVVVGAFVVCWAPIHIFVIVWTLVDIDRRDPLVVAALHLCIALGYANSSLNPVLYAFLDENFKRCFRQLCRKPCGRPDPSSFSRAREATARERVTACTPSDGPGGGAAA

SMILES: C=C(CCC(C)C1CCC2C1(C)CC(O)C13CC14C(=O)CC(O)C(C)(C(=O)O)C4C(=O)CC23O)C(C)C [FR171456, (1R,2aR,3R,5aR,5bS,7aR,8S,9S,11aS,12aR)-1,5b,9-trihydroxy-2a,8-dimethyl-3-((R)-6-methyl-5-methyleneheptan-2-yl)-7,11-dioxohexadecahydrocyclopenta[a]cyclopropa[e]-phenanthrene-8-carboxylic acid]
- IC50 [1]: 100 nM
- change of growth IC50 compared with the isogenic control [2]: increase in the IC50
- MIC [3]: 64 µg/mL and 144 µM
- strain sensitivity in HIP profile [4]: most significant hypersensitivity
- concentration not affecting proliferation [5]: > 4 µM
